# According to US6592545B1, “Particle delivery” (PowderJect Research Limited, priority 1994, dated 2003):
# Counter-ions that a name gives are not always drawn.
# Key:
# [1] = system: oral mucosa; assay: Visual assessment of oral mucosa delivery sites for damage or irritation after needleless syringe delivery; assay type: in vivo, human; settings: single 3 mg dose, particles 38-53 μm, 14 subjects, 24-48 hours after delivery
# Description: A randomized, double-blind, negatively controlled study was carried out in normal, healthy human subjects as follows. Initially, a single 3 mg dose of lignocaine HCL particles sized between 38 and 53 μm was delivered from a needleless syringe constructed in accordance with the invention. The lignocaine was delivered to the oral mucosa adjacent to the number 12 and 22 lateral incisors in 14 trial subjects. The delivery sites were then visually assessed for evidence of damage or irritation to the mucosal tissues.
# [2] = in vivo
# Description: In a second study, a single 3.0 mg dose of lignocaine HCL particles (as above) was delivered using a needleless syringe, and a single 0.2 mL dose of 2% lignocaine HCL was delivered via needle-syringe injection. Pain associated with the administration of each treatment was scored in all 14 subjects using a 100 mm visual analogue scale immediately after each treatment, wherein 100% indicates a painful treatment, and 0% indicates a pain-free treatment. The needleless syringe employed in the study was operated using 40 bar helium driving gas to expel anaesthetic particles from a flexible, eversible dome-shaped membrane comprised of a 400 μm, 6 mm polyurethane film.
# [3] = system: oral mucosa; assay: Local anaesthesia: pain response to probing oral mucosa with back of 27G dental needle, visual analogue scale; assay type: in vivo, human; settings: 3.0 mg particles via needleless syringe; probe of treated area 1 minute post delivery; untreated 55.6%, placebo 30.6%
# Description: A randomized, double-blind study was then carried out as follows. Treatments were given to 14 subjects over the course of three visits. The treatments provided to the subjects in each visit were either a single 3.0 mg dose of Lignocaine HCL particles from the above-described needleless syringe device, or 0.0 mg (as a blinded negative control). Accordingly, treatments provided over the course of the three visits were either: two actual (3.0 mg) doses of the anaesthetic particles and one placebo; or two placebos and one actual (3.0 mg) dose. Pain stimulus was provided by probing oral mucosa with the back of a 27G dental needle, wherein the probe sequence was a probe on an untreated area of the mucosa, and then a probe on the treated area of the mucosa 1 minute post delivery. Again, the pain associated with the probe of the untreated and treated areas was scored on visual analogue scales using the above scoring methods immediately after each probe.
# [4] = Serum testosterone pharmacokinetics after subcutaneous or OralJect transmucosal delivery (radioimmunoassay); assay type: in vivo, New Zealand White rabbit; settings: for Cmax: mean
# Description: Testosterone (Sigma Chemicals) was milled and sieved into a particle size range (approximately 50-100 μm) suitable for transmucosal delivery from a needleless syringe using standard stainless steel mesh sieves. Female New Zealand White rabbit subjects weighing between 2.2-2.8 kg were used and allowed food and water ad libitum. The rabbits (n=8) were randomly assigned to one of two treatment groups. The first treatment group received testosterone (2.0 mg dose) as a suspension in 35% polyvinylpyrrolidone C-30 in water (6 mg/g testosterone concentration) via subcutaneous injection. The second treatment group received testosterone (2.0 mg dose of testosterone particles ranging from 53-75 μm) as two 1.0 mg transmucosal administrations from an OralJect™ needleless syringe device abutted against the cheek mucosa.
# Whole blood (1.0 ml) was taken at times 0, 0.5, 1, 2, 4, 6, 8, 12, 24 and 48 hours, the serum aspirated and assayed for testosterone by radioimmunoassay (DPC). The OralJect™ device is a prototype device of the present invention that is actuated by helium at 40 bar.
# [5] = oral administration, degraded by the liver; cited from earlier work
SMILES,tissue reaction at delivery sites [1],"pain associated with administration, mean visual analogue score [2] [%]",mean pain response score to probe [3] [%],"Cmax ([4]; OralJect transmucosal (cheek mucosa), 2 x 1.0 mg particles 53-75 μm, rabbit serum) [nmol/I]","second minor peak of serum testosterone, time post administration ([4]; OralJect transmucosal, possible depot effect) [h]","bioavailability ([4]; female, New Zealand White, rabbit, serum, 2 mg, OralJect transmucosal, 2.0 mg, rabbit, read-out: % BA (% bioavailability)) [%]","Tmax ([4]; female, New Zealand White, rabbit, serum, OralJect transmucosal, 2.0 mg, all animals) [min]","Cmax ([4]; subcutaneous injection, 2.0 mg suspension in 35% polyvinylpyrrolidone C-30, rabbit serum) [nmol/I]","Cmax range ([4]; subcutaneous injection, 2.0 mg, rabbit serum)",first pass degradation [5] [%]
CCN(CC)CC(=O)Nc1c(C)cccc1C [lignocaine HCL],no evidence of any tissue reaction,49.9,15.0,–,–,–,–,–,–,–
"C[C@]12CC[C@H]3[C@@H](CCC4=CC(=O)CC[C@@]43C)[C@@H]1CC[C@@H]2O [testosterone, Testosterone]",–,–,–,25.5 ± 3.5,12,~48.3,30,34.8 ± 6.9,26.9 − 55.2 nmol/I,98
